# Measurements as given in patent publication US20050053625A1, “Method of treating viral infections” (priority 2001, published 2005).
# Tests used:
# [1] = set-up: species or system dogs; details: dog, in vivo
# Protocol: Determination of the best glucosidase inhibitor and analysis of glucosidase inhibition. Although our work, confirmed by others, has shown that efficient secretion of the HBV glycoprotein MHBs and LHBs requires the function of the ER glucosidase, the specific glucosidase inhibitor that would be most sensible to use in vivo studies is not entirely obvious. […] However, NNDNJ has a dose limiting toxicity in dogs. Although this occurred at very high doses (more than 250 mg/kg), and we believe the toxicity was unrelated to the glucosidase inhibition mechanism), it seems wise to explore the possibility of alternative glucosidase inhibitors for the proposed study. Thus, Aim 1 will be to explore the possibility that other compounds, with less toxicity can be found. […] It is therefore an attractive back up compound. Thus, although NNDNJ could be used in the proposed studies as a “stalking horse” and for a proof of concept, it will be “parked” (held in reserve) as we test other glucosidase inhibitors in our portfolio. Identification of the most appropriate glucosidase inhibitor
# glucosidase [2] = assay: Glucosidase / glycan processing inhibition in cells; assay type: cell-based; details: 10 μg/ml
# [3] = rat, in vivo
# Protocol: Based upon the toxicology data obtained from a 14 day rat study on N-nonyl-DNJ, the toxicity with the alkovirs is predicated to be minimal. With N-nonyl-DNJ, toxicity primarily consisted of GI upset as a result of inhibiting the gut α-glucosidase enzymes involved in carbohydrate digestion. It should be noted that even though toxicity was observed, the maximum tolerated dose was determined to be 250 mg/kg bid. This was well above the amount required to achieve serum drug concentrations that were anti-viral.
# glucosidase [4] = details: cited from earlier work
# HBV M protein = assay type: cell-based
# Protocol: Hep G2 cells were transfected with an M only expression vector and the next day the cells divided equally into 6 well trays. Compound was added one day latter at the indicated concentrations and the media changed every two days. The presence of sub-viral particles in the medium was detected via the Abbott Diagnostics Auszyme Monoclonal Diagnostic Kit as per manufacture's directions. For Graph: Y-axis is the OD at 492. X-axis indicates the compounds or cells used in the assay.
# Hep G2 cells transfected with the HBV M expression vector were treated with the glucosidase inhibitor NB-DNJ (4.5 mM and 6 days latter the amount of M protein associated with the culture medium (secreted) and the cells (retained) determined by ELISA. See text for more details. For graph: x-axis, Drug treatment and location of protein; for y-axis, % of HBV M protein as compared to untreated
# Hep G2 cells were transfected with the M only expression vector and seeded as daughter flasks into 6 well trays. Following 4 days of treatment of glucosidase inhibitor (NB-DNJ (4.5 mM)), drug was either removed (in samples labels as —R) or left on as a control. Day 0 is the time in which drug was removed. […] Day 3 and Day 5 are days after drug removal. For Graph: Y-axis is the OD at 492. X-axis indicates the compounds or cells used in the assay. UN=untreated sample; Un-R is the untreated rebound sample; NB=N-butyl-DNJ; NB-R=N-butyl-DNJ rebound sample.
# HBV M protein secretion is sensitive to glucosidase inhibition. Our previous work has determined that the secretion of HBV sub-viral particles containing the M protein was sensitive to glucosidase inhibition. (Mehta et al., 1997). That is, when Hep G2 2.215 cells were treated with the glucosidase inhibitor NB-DNJ, purified sub-viral particles appeared to lack the M protein. However, it was unclear if this was the result of the M protein's sensitivity to glucosidase inhibition or required some other viral factor. To test this hypothesis, an expression vector (pCMV-MS^−X) directs the expression of HBV M, but no other viral protein, was created. This “M only” expression vector was then used to determine if the M protein itself, in the absence of other viral functions, was sensitive to glucosidase inhibition. In addition, an expression vector, unable to express “M”, but able to express “S” was made on the same plasmid backbone as the “M” only vector, as was used as a control (pCMV-M^−SX). For these studies three imino sugars were used: N-butyl-DNJ, N-nonyl-DNJ and N-nonyl-DGJ. N-butyl-DNJ is our standard glucosidase inhibitor and has been used by several labs for over 10 years (Carlson et al.,1995, Block et al., 1994). […] Briefly, Hep G2 cells were transfected with the expression vectors pCMV HBV MS^−X and pCMV HBV M^−SX and subsequently seeded into fresh 6 well trays. The transfected cells were treated with the indicated concentrations of NB-DNJ, NN-DNJ or NN-DGJ (as a negative control) and three days latter the media analyzed for the presence of the HBV M or HBV S protein as described in Mehta et al, 2001. […] Fore example, concentrations of NN-DNJ which have no impact upon glycan inhibition, as determined by glycan analysis or α-1-acid-glycoprotein secretion, had no effect upon HBV M protein secretion (data not shown). In contrast to the effect of the glucosidase inhibitors on M protein secretion, the secretion of the HBV S protein was insensitive to either NB-DNJ or NN-DNJ providing further proof that the S protein is insensitive to glucosidase inhibition (data not shown; Block et al., 1994, Mehta et al., 1997, Werr & Prange, 1998). To determine if the secretion of the HBV M protein was prevented by another non-glucosidase mechanism, other compounds with the same alkyl side chain (tail) but altered imino sugar head groups, were synthesized. For example, NN-DGJ has the same chain length as NN-DNJ but is not a glucosidase inhibitor. […]
# liver cells = details: cited from earlier work
# 2.2.15 cells = assay: Selectivity index (CC90/IC90), MHBs secretion and MTT on 2.2.15 cells; assay type: cell-based
# Excerpt: Selectivity index and cytotoxicity assessment. The concentration of compound needed to reduce the amount of MHBs present in the culture medium (of MHBs producing cells) by 90%, relative to untreated or placebo treated controls will be considered to be the IC90 (inhibitory concentration, 90). The toxicity of the compounds to the tissue cultures will initially be determined the MTT assay, as described in (Lu et al., 1997). Briefly, the amount of MTT enzyme functional in the same sets of cells used for determination of the ability of a compound to reduce the secretion of MHBs (see above) will be measured. Thus, the impact of a compound upon cell viability will be assessed in the same cells in which MHBs reductions have been determined. The concentration of compound that results in a reduction of MTT activity (compared to untreated cultures) of 90% will be considered to be the CC90. The selectivity index will be expressed as the CC90 divided by the IC90. Using these criteria, as determined by assays on 2.2.15 cells under the conditions described in prelim. evidence, the selectivity index of NNDNJ is approximate 100. Thus, compounds will be considered attractive if they have a selectivity index of greater than 100.
structure (smiles),measurement,setting,value
"CCCCCCCCCN1C[C@H](O)[C@@H](O)[C@H](O)[C@H]1CO [NN-DNJ, 1,5-dideoxy-1,5-nonylylimino-D-glucitol]",dose at which dose limiting toxicity occurred,[1],more than 250 mg/kg
same,inhibits glycan processing,glucosidase [2],15-20%
same,maximum tolerated dose,[3],250 mg/kg bid
same,toxicity observed,[3],GI upset
same,inhibit glucosidase,glucosidase [4],15-20%
same,amount of M protein in the culture medium,HBV M protein; 10 μg/ml,almost undetectable levels
same,HBV M protein secretion at concentrations with no impact upon glycan inhibition,"HBV M protein; concentrations which have no impact upon glycan inhibition, data not shown",no effect
same,secretion of the M protein,"HBV M protein; indicated concentrations, three days, FIG. 4",prevented the secretion of the M protein
same,uptake by liver cells,liver cells,preferentially taken up by liver cells
same,selectivity index (CC90 divided by IC90),2.2.15 cells,~100
